Data from patent US9579330B2, “Use and application regimen of a pharmaceutical composition containing levonorgestrel and a COX inhibitor for on-demand contraception” (priority 2012, dated 2017).
Like-named read-outs stand apart in the source and are kept apart here. Marks after values point to notes of the source that are not given here.

What was measured:
[1] = tested on: fertility of female rats; test: Rat fertility test: single application in pro oestrus, pairing, number of implantation sites; assay type: in vivo, Han Wistar rats
Experimental: In the experiments below, female Han Wistar rats with a weight of 200-270 g were used. The animals were kept in Macrolon cages in rooms with controlled lighting (12 hours darkness: 12 hours lightness), fed with a standard diet and watered with water ad libitum. Levonorgestrel was dissolved in benzyl benzoate/castor oil (1+4 v/v) and the daily dose was applied in a volume of 1 ml/kg of body weight s.c. The COX inhibitors were suspended in a carrier liquid (85 mg Myrj®53 polyoxyl(50)stearate; CAS No. 9004-99-3) in 100 ml of 0.9% w/v NaCl solution) and the dose corresponding to the treatment group was administered orally in a volume of 2 ml/kg of body weight. Two cycles were observed using vaginal smears prior to the start of the experiment. […] Assignment to the treatment groups was random. The animals were treated once with the test substances either on their own or in combination in pro oestrus, the day in the cycle on which in the evening the LH peaked. On the evening of […] the female animals were paired with male rats. Successful pairing was tested the next morning by means of a vaginal sperm detection in the vaginal smear. The influence on the fertility was ascertained 9-15 days after the pairing via the number of implantation sites of the animals. The group size was n=6 animals per group.

[2] = tested on: ovulation of women; test: Clinical phase IIa study: oral single dose of piroxicam after start of the LH increase, ovulation inhibition or delay; assay type: in vivo; settings: for Time from LH increase to ovulation in the treatment cycle, average value / Time from LH increase to ovulation in the treatment cycle, median / Time from LH increase to ovulation in the treatment cycle, range: N = 16; for % of women who exhibited an at least plus 24 hour delay in ovulation / Number of women who exhibited an at least plus 24 hour delay in ovulation compared to the median time between LH increase and ovulation in the untreated previous cycle: N = 16, final evaluation set
Experimental: In a clinical phase IIa study (monocentric, double blind, placebo controlled, randomized, parallel groups), piroxicam was administered to women of a fertile age in the dosages 20, 40 and 80 mg as an oral single dose. Overall, 72 women were treated, of which 18 women were given 20 mg, 17 women were given 40 mg, 20 women were given 80 mg of piroxicam and 17 women were given a placebo preparation. It was the aim of the study to investigate whether the oral single administration of piroxicam after the start of the LH increase has an effect on ovulation compared to the placebo in healthy young women. An ovulation inhibition or delay by at least plus 24 hours longer than the median duration between LH increase and ovulation in the untreated previous cycle of the study population was evaluated as the effect. For this purpose, transvaginal ultrasound investigations and hormone level measurements were carried out. Only women (n=64) without serious protocol deviations which could have influenced the study aim were included in the final study evaluation.
Adapted Kaplan-Meier curve for depicting the ovulation delay following administration of piroxicam compared to the administration of a placebo preparation. The time after the LH increase is plotted on the X axis in days. […] The individual curves represent the individual treatment groups: placebo group (solid line); 20 mg of piroxicam (dotted line consisting of short strokes), 40 mg of piroxicam (dotted line consisting of long strokes) and 80 mg of piroxicam (dotted line consisting of alternating long and short strokes).

[3] = tested on: fertility in humans; settings: taken over a prolonged period for treating Bechterew's disease; cited from earlier work
[4] = tested on: prostaglandin E2 (PEG2) synthesis in the ovaries
[5] = tested on: cervical secretion; settings: clinical study; cited from earlier work
[6] = Table 2.2, treatment at 17:00, LNG 0.5 mg/animal, indomethacin 1 mg/animal, combination n = 5
[7] = Table 2.1, treatment at 7:00, LNG 0.5 mg/animal s.c., piroxicam 2 mg/animal oral, single application
[8] = Table 2.1, treatment at 13:00, LNG 0.5 mg/animal s.c., piroxicam 2 mg/animal oral, single application
[9] = Table 2.5, LNG 0.5 mg/animal at 17:00 (n = 5), naproxen 10 mg/animal at 20:00 (n = 4), combination 17:00
[10] = Table 2.5, naproxen 2 × 5 mg/animal at 17:00 and 20:00, alone or with LNG 0.5 mg/animal
[11] = Table 2.3, treatment at 17:00, LNG 0.5 mg/animal (n = 5), diclofenac 4 mg/animal
[12] = Table 2.4, treatment at 17:00, LNG 0.5 mg/animal, ibuprofen 12.5 mg/animal
[13] = Table 2.4, treatment at 17:00, ibuprofen 25 mg/animal alone or with LNG 0.5 mg/animal

In the case of `COc1ccc2c(c1)c(CC(=O)O)c(C)n2C(=O)c1ccc(Cl)cc1` [Indomethacin, indomethacin], the “Implantations per animal (average value ± SD)” value [1, 6] is reported as 4.8 ± 4.1 and the “Sum of the implantation sites of 6 animals” value [1, 6] is reported as 29.
With `CN1C(C(=O)Nc2ccccn2)=C(O)c2ccccc2S1(=O)=O` [Piroxicam, piroxicam] the “Extension of the time (median) between LH increase and ovulation in the treatment cycle compared to the previous cycle” value ([2]; 20 mg oral single dose) was 17 h, the “Time from LH increase to ovulation in the treatment cycle, average value” (“Time from LH increase … average value” below) ([2]; 20 mg oral single dose) was 133 h and the “Time from LH increase to ovulation in the treatment cycle, median” value (shortened to “Time from LH increase to ovulation … median”) ([2]; 20 mg oral single dose) was 65 h. The “Time from LH increase to ovulation in the treatment cycle, range” value (“Time from LH increase to ovulation … range” for short) ([2]; 20 mg oral single dose) was 38 to 416 h, the “% of women who exhibited an at least plus 24 hour delay in ovulation” value ([2]; 20 mg oral single dose) was 50.0% and the “Number of women who exhibited an at least plus 24 hour delay in ovulation compared to the median time between LH increase and ovulation in the untreated previous cycle” value ([2]; 20 mg oral single dose) was 8. The “Extension of the time (median) between LH increase and ovulation in the treatment cycle compared to the previous cycle” value ([2]; 40 mg oral single dose) was 15 h, the “Time from LH increase … average value” ([2]; 40 mg oral single dose) was 121 h and the “Time from LH increase to ovulation … median” value ([2]; 40 mg oral single dose) was 63 h. The “Time from LH increase to ovulation … range” value ([2]; 40 mg oral single dose) was 37 to 384 h, the “% of women who exhibited an at least plus 24 hour delay in ovulation” value ([2]; 40 mg oral single dose) was 43.8% and the “Number of women who exhibited an at least plus 24 hour delay in ovulation compared to the median time between LH increase and ovulation in the untreated previous cycle” value ([2]; 40 mg oral single dose) was 7. For the same molecule, the “Extension of the time (median) between LH increase and ovulation in the treatment cycle compared to the previous cycle” value ([2]; 80 mg oral single dose) was 228 h, the “Time from LH increase … average value” ([2]; 80 mg oral single dose) was 219 h and the “Time from LH increase to ovulation … median” value ([2]; 80 mg oral single dose) was 276 h. For the same molecule, the “Time from LH increase to ovulation … range” value ([2]; 80 mg oral single dose) was 48 to 386 h, the “% of women who exhibited an at least plus 24 hour delay in ovulation” value ([2]; 80 mg oral single dose) was 68.8% and the “Number of women who exhibited an at least plus 24 hour delay in ovulation compared to the median time between LH increase and ovulation in the untreated previous cycle” value ([2]; 80 mg oral single dose) was 11. The “Effect on ovulation compared to placebo (in words)” value ([2]; all three dose groups (20, 40, 80 mg)) was “more marked effect on ovulation than in the placebo group”, the “Implantations per animal (average value ± SD)” value [1, 7] was 9.5 ± 4.8 and the “Sum of the implantation site, of 6 animals” value [1, 7] was 57. For the same molecule, the “Implantations per animal (average value ± SD)” value [1, 8] was 10.0 ± 5.3 and the “Sum of the implantation site, of 6 animals” value [1, 8] was 60.
In the case of `COc1ccc2cc([C@H](C)C(=O)O)ccc2c1` [Naproxen, naproxen], the “Effect on fertility in humans (in words)” value [3] is listed as “antifertile effect”, the “Prostaglandin E2 in the ovaries, average value” (shortened to “Prostaglandin E2 in the ovaries”) ([4]; sample at 18:00, 2 hours after oral 20 mg/kg naproxen (around 16:00)) is listed as 12.9 pg/500 μg tissue and the “Prostaglandin E2 in the ovaries” value ([4]; sample at 20:00, 4 hours after oral 20 mg/kg naproxen (around 16:00)) is listed as 32.1 pg/500 μg tissue. The “Prostaglandin E2 in the ovaries” value ([4]; sample at 22:00, 6 hours after oral 20 mg/kg naproxen (around 16:00)) was 72.4 pg/500 μg tissue, the “Prostaglandin E2 (PEG2) synthesis in the ovaries (in words)” value ([4]; under the action of naproxen) was “reduced” and the “Implantations per animal (average value ± SD)” value [1, 9] was 5.8 ± 4.4. For the same molecule, the “Sum of the implantation sites of 6 animals” value [1, 9] was 23**, the “Implantations per animal (average value ± SD)” value [1, 10] was 7.3 ± 3.6 and the “Sum of the implantation sites of 6 animals” value [1, 10] was 44. The “Antifertile effect in the rat fertility test (in words)” value ([1]; single application, doses as in Tables 2.1-2.5) was “reduction in fertility”.
For `O=C(O)Cc1ccccc1Nc1c(Cl)cccc1Cl` [Diclofenac, diclofenac], the “Implantations per animal (average value ± SD)” value [1, 11] is given as 3.7 ± 3.6, the “Sum of the implantation sites of 6 animals” value [1, 11] is given as 22 and the “Effect on cervical secretion (in words)” value [5] is given as “reduction in cervical secretion”.
In the case of `C#C[C@]1(O)CC[C@H]2[C@@H]3CCC4=CC(=O)CC[C@@H]4[C@H]3CC[C@@]21CC` [LNG, levonorgestrel], the “Implantations per animal (average value ± SD)” value [1, 7] is reported as 8.3 ± 4.3, the “Sum of the implantation site, of 6 animals” value [1, 7] is reported as 50 and the “Implantations per animal (average value ± SD)” value [1, 8] is reported as 5.3 ± 3.1. For the same molecule, the “Sum of the implantation site, of 6 animals” value [1, 8] was 32, the “Implantations per animal (average value ± SD)” value [1, 6] was 7.5 ± 4.0 and the “Sum of the implantation sites of 6 animals” value [1, 6] was 45. For the same molecule, the “Implantations per animal (average value ± SD)” value [1, 11] was 6.8 ± 5.9, the “Sum of the implantation sites of 6 animals” value [1, 11] was 34* and the “Implantations per animal (average value ± SD)” value [1, 12] was 10.5 ± 4.5. The “Sum of the implantation sites of 6 animals” value [1, 12] was 63, the “Implantations per animal (average value ± SD)” value [1, 9] was 7.8 ± 5.9 and the “Sum of the implantation sites of 6 animals” value [1, 9] was 39*.
With `CC(C)Cc1ccc(C(C)C(=O)O)cc1` (stereo not drawn) [Ibuprofen, ibuprofen] the “Implantations per animal (average value ± SD)” value [1, 12] was 10.8 ± 3.2, the “Sum of the implantation sites of 6 animals” value [1, 12] was 65 and the “Implantations per animal (average value ± SD)” value [1, 13] was 11.3 ± 2.6. The “Sum of the implantation sites of 6 animals” value [1, 13] was 68.
